Experiments:
Assay type in all cases: in vivo
[1] = tested on: Plutella xylostella; assay: Plutella xylostella test (cabbage leaf dip, larvae mortality); conditions: mortality after 3 d, cabbage leaves
Description: To produce a suitable preparation of active compound, 1 part by weight of active compound is mixed with the stated amount of solvent and emulsifier, and the concentrate is diluted with emulsifier-containing water to the desired concentration. Cabbage leaves (Brassica oleracea) are treated by being dipped into the preparation of the active compound of the desired concentration and are infested with larvae of the diamond back moth (Plutella xylostella) as long as the leaves are still moist. After the specified period of time, the mortality in % is determined. 100% means that all the caterpillars have been killed; 0% means that none of the caterpillars have been killed.

[2] = tested on: Spodoptera exigua; assay: Spodoptera exigua test (cabbage leaf dip, larvae mortality); conditions: 500 ppm, mortality after 3 d, cabbage leaves
Description: (§1) To produce a suitable preparation of active compound, 1 part by weight of active compound is mixed with the stated amount of solvent and emulsifier, and the concentrate is diluted with emulsifier-containing water to the desired concentration.
Cabbage leaves (Brassica oleracea) are treated by being dipped into the preparation of the active compound of the desired concentration and are infested with larvae of the beet army worm (Spodoptera exigua) as long as the leaves are still moist.
(§2) After the specified period of time, the mortality in % is determined. 100% means that all the caterpillars have been killed; 0% means that none of the caterpillars have been killed.

[3] = tested on: Spodoptera frugiperda; assay: Spodoptera frugiperda test (cabbage leaf dip, larvae mortality); conditions: cabbage leaves; for Efficacy in % after 6 d: mortality after 6 d; for Efficacy in % after 4 d: mortality after 4 d
Description: as §1
Cabbage leaves (Brassica oleracea) are treated by being dipped into the preparation of the active compound of the desired concentration and are infested with larvae of the fall army worm (Spodoptera frugiperda) as long as the leaves are still moist.
as §2

`CN/C(=N\[N+](=O)[O-])NCc1cnc(Cl)s1` [Clothianidin] was tested, and the “Efficacy in % after 3 d” value ([1]; 4 ppm) was 0%.

With `O=C(NCc1ncc(C(F)(F)F)cc1Cl)c1c(Cl)cccc1Cl` [Fluopicolide, 2,6-dichloro-N-{[3-chloro-5-(trifluoromethyl)-2-pyridinyl]methyl}-benzamide] the “Efficacy in % after 3 d” value ([1]; 200 ppm) was 0%, the “Efficacy in % after 3 d” value [2] was 0% and the “Efficacy in % after 6 d” value ([3]; 200 ppm) was 0%. For the same molecule, the “Efficacy in % after 4 d” value ([3]; 500 ppm) was 0%.

With `N#C/N=C1\SCCN1Cc1ccc(Cl)nc1` [Thiacloprid] the “Efficacy in % after 4 d” value ([3]; 20 ppm) was 25%.

In the case of `O=[N+]([O-])NC1=NCCN1Cc1ccc(Cl)nc1` [Imidacloprid], the “Efficacy in % after 3 d” value [2] is reported as 40%.

In the case of `CN1COCN(Cc2cnc(Cl)s2)/C1=N\[N+](=O)[O-]` [Thiamethoxam], the “Efficacy in % after 6 d” value ([3]; 100 ppm) is reported as 0%.

Reference: US8927583B2, “Pesticidal composition comprising a 2-pyrdilmethylbenzamide derivative and an insecticide compound” (Bayer Cropscience AG, priority 2006, dated 2015)
